Where two headings read alike, the source gives them in different places. Some results are limits rather than exact numbers.

For series [1], the system named is NMDA-induced lethality. As to the kind of experiment: NMDA-induced lethality in mice (survival; standard experimental test procedure). It counts as in vivo, male Swiss-albino mice (CD-1 strain). The conditions noted are these: for ED50: Mus musculus, 0.5 h; for ED50 / ED50 Inhibition of NMDA-Induced Lethality, I.P. (dose required to produce 50% survival rate): NMDA 195 mg/kg i.p., 30 min pretreatment; for IP/PO Ratio: ED50 inhibition of NMDA-induced lethality, I.P. over P.O.; for Percent of animals which survived at the dose indicated (NMDA-induced lethality): I.P.; for Relative potency, antagonism of NMDA-induced lethality vs ataxia (in words): traction reflex deficit model. Here is the method: The mice were pretreated with the representative test compounds followed thirty minutes later with NMDA (195 mg/kg, i.p., the ED90 dose for generalized myoclonus). The mice were then observed for 30 minutes, noting the latency of onset of generalized myoclonus (uncontrollable hind leg scratching or limbs and/or torso muscle jerking with loss of righting reflex) and death. From the latter, the ED50 for survival is determined. In this standard experimental test procedure, the specific compounds tested and their activity, which representatively establish the activity for all the compounds herein, is presented in Table I as follows: […]

Series [2] in a line: Traction reflex deficit (ataxia) in mice. The conditions noted are these: mouse, in vivo, ip, I.P., read-out: TD50 - Traction Reflex Deficit, I.P. (dose which produced the deficit in 50% of animals tested). From the text:
In fact, the separation between a compounds's NMDA-antagonist activity and ataxic activity (often expressed as an "efficacy ratio" of the ED50 's of these two activities) has been extensively used to evaluate its therapeutic usefulness versus its liabilities.
^@ As measured in mice. Defined as the dose which produced the defici

For series [3] the following is noted: result in words; cited from earlier work.
Series [4] relates to high-affinity PCP binding site in the NMDA-associated ion channel. The settings on record: result in words; cited from earlier work.
Series [5] concerns cell death in cerebral ischemia models. The settings on record: result in words; cited from earlier work.
[6] abbreviates: ip, intraperitoneal injection, read-out: ED50 Inhibition of NMDA-Induced Lethality, I.P. (dose required to produce 50% survival rate).

On to `COc1ccc2c(c1)[C@]13CCCC[C@@H]1[C@H](C2)N(C)CC3` [Dextromethorphan, reference compound], for which, in series [1] (setting [6]), the ED50 is 21 mg/kg. The TD50 in series [2] was determined as 45 mg/kg.
As for `CN1CC[C@@]23CCCC[C@@H]2[C@@H]1Cc1ccc(O)cc13` [Dextrorphan, dextrorphan, reference compound], the “Efficacy ratio for antagonizing NMDA-induced lethality over ataxia (in words)” value in series [1] (comparison with reference NMDA antagonists) is reported as “essentially the same as that for dextromethorphan”. Besides, the “ED50 Inhibition of NMDA-Induced Lethality, I.P. (dose required to produce 50% survival rate)” value in series [1] (intraperitoneal injection) came out at 13 mg/kg. In addition, the TD50 in series [2] was found to be 29 mg/kg.
For the compound `CN1CC2(C)c3ccccc3CC1c1ccccc12` (stereo not shown) [Example 1, 10,11-Dihydro-5,12-dimethyl-10,5-(iminomethano)-5H-dibenzo[a,d]cycloheptene], the ED50 in series [1] (setting [6]) worked out at 3.1 mg/kg. Further, the TD50 in series [2] was 13 mg/kg.
`CC12CN(CCc3ccccn3)C(Cc3ccccc31)c1ccccc12` (stereo not shown) [Example 2, 10,11-Dihydro-5-methyl-12-[2-(2-pyridinyl)ethyl]10,5-(iminomethano)-5H-dibenzo[a,d]cycloheptene]: in series [1], the “IP/PO Ratio” value was 0.57. In series [1] (setting [6]), the ED50 amounted to 9.8 mg/kg. Also, the TD50 in series [2] turned out to be 67 mg/kg.
With `CC12CN(CCc3ccncc3)C(Cc3ccccc31)c1ccccc12` (stereo not shown) [Example 3, 10,11-Dihydro-5-methyl-12-[2-(4-pyridinyl)ethyl]10,5-(iminomethano)-5H-dibenzo[a,d]cycloheptene], the ED50 in series [1] (setting [6]) came to 18 mg/kg. The TD50 in series [2] turned out to be 83 mg/kg.
As to `CC12CN(CCc3cnccn3)C(Cc3ccccc31)c1ccccc12` (stereo not shown) [Example 4, 10,11-Dihydro-5-methyl-12-(2-pyrazinylethyl)-10,5-(iminomethano)-5H-dibenzo-cycloheptene], the ED50 in series [1] (setting [6]) turned out to be 12 mg/kg. Further, the TD50 in series [2] was 30 mg/kg.
With `CN(C)CCCN1CC2(C)c3ccccc3CC1c1ccccc12` (stereo not shown) [Example 5, 10,11-Dihydro-N,N,5-trimethyl-10,5-(iminomethano)-5H-dibenzo[a,d]cycloheptene-12-propanamine], in series [1] (at 100 mg/g (so in the source)), the “Percent of animals which survived at the dose indicated (NMDA-induced lethality)” value (“Percent of animals which survived” for short) is reported as 66%.
Consider `CC12CN(Cc3ccccn3)C(Cc3ccccc31)c1ccccc12` (stereo not shown) [Example 6, 10,11-Dihydro-5-methyl-12-(2-pyridinylmethyl)-10,5-(iminomethano)-5H-dibenzo[a,d]cycloheptene], for which the “Percent of animals which survived” value in series [1] (at 20 mg/kg) worked out at 66%.
As for `CC12CN(CCc3ccc4ccccc4n3)C(Cc3ccccc31)c1ccccc12` (stereo not shown) [Example 7, 10,11-Dihydro-5-methyl-12-[2-(2-quinolinyl)ethyl]-10,5-(iminomethano)-5H-dibenzo[a,d]cycloheptene], the ED50 in series [1] (setting [6]) was more than 20 mg/kg.
Turning to `Cc1cccc(CCN2CC3(C)c4ccccc4CC2c2ccccc23)n1` (stereo not shown) [Example 8, 10,11-Dihydro-5-methyl-12-[2-(6-methyl-2-pyridinyl)ethyl]-10,5-(iminomethano)-5H-dibenzo[a,d]cycloheptene], in series [1] (setting [6]), the ED50 came out at 13 mg/kg. In addition, the TD50 in series [2] was 68 mg/kg.
Take `CC12CN(CCc3ccccc3)C(Cc3ccccc31)c1ccccc12` (stereo not shown) [Example 9, 10,11-Dihydro-5-methyl-12-(2-phenylethyl)-10,5-(iminomethano)-5H-dibenzo[a,d]cycloheptene]: in series [1] (at 20 mg/kg), the “Percent of animals which survived” value was determined as 17%.
In the case of `CC(C)N1CC2(C)c3ccccc3CC1c1ccccc12` (stereo not shown) [Example 10, 10,11-Dihydro-5-methyl-12-(2-propyl)-10,5-(iminomethano)-5H-dibenzo[a,d]cycloheptene], the “Percent of animals which survived” value in series [1] (at 10 mg/kg) worked out at 100%.
Regarding `CC(=O)N1CC2(C)c3ccccc3CC1c1ccccc12` (stereo not shown) [Example 11, 10,11-Dihydro-5-methyl-10,5-(iminomethano)-5H-dibenzo[a,d]cycloheptene-12-acetamide], the “Percent of animals which survived” value in series [1] (at 10 mg/kg) is 10%.
Consider `C[C@]12N[C@H](Cc3ccccc31)c1ccccc12` [MK-801, reference compound], for which, in series [1], the “IP/PO Ratio” value is listed as 0.58 and the “Relative potency, antagonism of NMDA-induced lethality vs ataxia (in words)” value is reported as “no separation”. Also, the ED50 in series [1] (oral administration, read-out: ED50 Inhibition of NMDA-Induced Lethality, P.O. (dose required to produce 50% survival rate)) was determined as 0.32 mg/kg. The ED50 in series [1] (setting [6]) stood at 0.19 mg/kg. The TD50 in series [2] turned out to be 0.17 mg/kg. The “Generalization for PCP in drug discrimination” value in series [3] is on record as “generalizes for PCP”. Besides, the “Competition for the high-affinity PCP binding site” value in series [4] is “competes for the high-affinity PCP binding site”. Moreover, the “Protection against cell death in cerebral ischemia models” value in series [5] is listed as “protects against cell death in cerebral ischemia models”.
On to `c1ccc(C2(N3CCCCC3)CCCCC2)cc1` [PCP, phencyclidine, reference compound], for which, in series [1] (intraperitoneal injection), the “ED50 Inhibition of NMDA-Induced Lethality, I.P. (dose required to produce 50% survival rate)” value was 1.9 mg/kg. Moreover, the “Relative potency, antagonism of NMDA-induced lethality vs ataxia (in words)” value in series [1] is listed as “approximately equipotent”. The TD50 in series [2] amounted to 2.7 mg/kg. Also, in series [5], the “Protection against cell death in cerebral ischemia models” value is given as “protects against cell death in cerebral ischemia models”.

The record behind these values is patent US4940789A, “10,11-dihydro-5-alkyl-12-substituted-10,5-(iminomethano)-5H-d ibenzo[a,d]cycloheptenes as neuroprotectant agents” (priority 1989, dated 1990).
